The values below come from US4142046A, “Intermediates for the preparation of 7-acyl-3-(substituted triazolylthiomethyl)cephalosporins” (SmithKline Corporation, priority 1976, dated 1979).

Converted amounts (≈) assume the structure as drawn. Like-named read-outs stand apart in the source and are kept apart here.

One assay concerns Kleb. pneumo. 4200. The assay can be described thus: In vivo mouse protection (ED50). Particulars: for ED50: Mus musculus.
Assay [1] relates to Entero. aerog. ATCC 13048. The assay can be described thus: MIC in vitro. The assay is classed as cell-based. The method, then:
(§1) The compounds of Formula I have antibacterial activity against both Gram-positive and Gram-negative organisms. Minimum inhibitory concentrations (MIC's) ranged from 0.2 to >200 μg./ml. in in vitro testing. […] Compound numbers corresponding to structures are given in the experimental section.

The subject of a further assay is Shigella HH 117. Nature of the assay: MIC in vitro. The assay is classed as cell-based. Particulars: Shigella, HH117, Shigella HH 117. The method, then:
as §1

The test system of the next assay is Serra. marc. ATCC 13880. The assay can be described thus: MIC in vitro. The assay is classed as cell-based. The method, then:
as §1

In another assay the test system is Strep. faecalis HH 34358. Nature of the assay: MIC in vitro. The assay is classed as cell-based. The note with it: Enterococcus faecalis, HH34358, Strep. faecalis HH 34358. As to the method:
as §1

Another assay has as its system Entero. cloacae HH 31254. Nature of the assay: MIC in vitro. The note with it: Enterobacter cloacae, HH31254, Entero. cloacae HH 31254; read-out: MIC in vitro. The assay is classed as cell-based. As to the method: as §1
A further assay relates to Kleb. pneumo. SK 4200. The assay can be described thus: MIC in vitro. The assay is classed as cell-based. The note with it: Kleb. pneumo. SK 4200; read-out: MIC in vitro. As to the method:
as §1

The next assay deals with E. coli SK 12140. The assay can be described thus: MIC in vitro. The assay is classed as cell-based. Particulars: Escherichia coli, SK12140; E. coli SK 12140; read-out: MIC in vitro. The method, then: as §1
For the next assay, the system named is Pseudo. sp. HH 63. Nature of the assay: MIC in vitro. It counts as cell-based. As to the method:
as §1

Another assay has as its system Salmonella ATCC 12176. Nature of the assay: MIC in vitro. The assay is classed as cell-based. Particulars: ATCC12176. As to the method:
as §1

A further assay has as its system Kleb. pneumo. SK 1200. The assay can be described thus: MIC in vitro. It counts as cell-based. As to the method:
as §1

A further assay concerns E. coli HH 33779. Nature of the assay: MIC in vitro. The note with it: Escherichia coli, HH33779. It counts as cell-based. As to the method: as §1
For the next assay, the system named is Proteus Morgani 179. The assay can be described thus: MIC in vitro. It counts as cell-based. The method, then:
as §1

Another assay deals with S. aureus HH 127. The assay can be described thus: MIC in vitro. It counts as cell-based. Particulars: Staphylococcus aureus. As to the method:
as §1

Another assay relates to S. aureus SK 23390. Nature of the assay: MIC in vitro. The note with it: Staphylococcus aureus. It counts as cell-based. As to the method:
as §1

For another assay, the system named is S. villaluz. The assay can be described thus: MIC in vitro. The assay is classed as cell-based. The note with it: read-out: MIC in vitro. The method, then:
as §1

The next assay concerns E. coli 12140. The assay can be described thus: In vivo mouse protection (ED50).
[2] abbreviates: Escherichia coli, 12140, po, E. coli 12140, p.o.
The mark [3] stands for this setting: Escherichia coli, 12140, sc, E. coli 12140, s.c.
The mark [4] stands for this setting: Kleb. pneumo. SK 1200, read-out: MIC in vitro.
Where [5] appears, read: SK23390, S. aureus SK 23390, read-out: MIC in vitro.
Where [6] appears, read: HH127, S. aureus HH 127, read-out: MIC in vitro.

With `N[C@@H](C(=O)NC1C(=O)N2C(C(=O)O)=C(CSc3n[nH]c(CC(=O)O)n3)CS[C@H]12)c1ccc(O)cc1` (stereo partly drawn) [VII, 7-(D-α-Amino-4-hydroxyphenylacetamido)-3-(5-carboxymethyl-1,2,4-triazol-3-ylthiomethyl)-3-cephem-4-carboxylic acid], the ED50 in the assay on Kleb. pneumo. 4200 (po, Kleb. pneumo. 4200, p.o.) is 31 mg/kg; in the assay with Kleb. pneumo. 4200 (sc, Kleb. pneumo. 4200, s.c.) it was 1.1 mg/kg; with E. coli 12140 (setting [2]) it was more than 50 mg/kg; with E. coli 12140 (setting [3]) it was 3 mg/kg. Moreover, the minimal inhibitory concentration (MIC) in assay [1] was 25 µg/mL (≈ 48 µM); against Shigella HH 117 it was 6.3 µg/mL (≈ 12.1 µM); in the assay with Serra. marc. ATCC 13880, more than 200 µg/mL; in the assay with Strep. faecalis HH 34358, 100 µg/mL (≈ 192 µM); in the assay with Entero. cloacae HH 31254 it was 3.1 µg/mL (≈ 5.96 µM); in the assay on Kleb. pneumo. SK 4200, 1.6 µg/mL (≈ 3.07 µM). Moreover, the MIC in the assay with E. coli SK 12140 is 3.1 µg/mL (≈ 5.96 µM); against Pseudo. sp. HH 63, more than 200 µg/mL; against Salmonella ATCC 12176 it was 1.6 µg/mL (≈ 3.07 µM); with Kleb. pneumo. SK 1200 (read-out: MIC in vitro, Kleb. pneumo. SK 1200), 6.3 µg/mL (≈ 12.1 µM); with E. coli HH 33779 it was 12.5 µg/mL (≈ 24 µM); in the assay with Proteus Morgani 179 it was more than 200 µg/mL. Further, the MIC in the assay on S. aureus HH 127 (HH127, read-out: MIC in vitro) was 12.5 µg/mL (≈ 24 µM); with S. aureus SK 23390 (SK23390, read-out: MIC in vitro), 12.5 µg/mL (≈ 24 µM); with S. villaluz, more than 200 µg/mL.
`N[C@@H](C(=O)NC1C(=O)N2C(C(=O)O)=C(CSc3n[nH]c(CC(=O)O)n3)CS[C@H]12)c1ccccc1` (stereo partly drawn) [VIII, 7-(D-α-Aminophenylacetamido)-3-(5-carboxymethyl-1,2,4-triazol-3-ylthiomethyl)-3-cephem-4-carboxylic acid] showed an ED50 in vivo in the assay on Kleb. pneumo. 4200 (Kleb. pneumo. 4200, s.c.) of less than 0.78 mg/kg. For the same compound, the ED50 is 39 mg/kg in the assay on Kleb. pneumo. 4200 (po, Kleb. pneumo. 4200, p.o.); 0.8 mg/kg with Kleb. pneumo. 4200 (sc, Kleb. pneumo. 4200, s.c.); more than 50 mg/kg with E. coli 12140 (setting [2]); 1.1 mg/kg with E. coli 12140 (setting [3]). The MIC in assay [1] was 6.3 µg/mL (≈ 12.5 µM); against Shigella HH 117 it was 3.1 µg/mL (≈ 6.14 µM); in the assay with Serra. marc. ATCC 13880, more than 200 µg/mL; with Strep. faecalis HH 34358, 200 µg/mL (≈ 396 µM); in the assay with Entero. cloacae HH 31254, 3.1 µg/mL (≈ 6.14 µM); with Kleb. pneumo. SK 4200, 1.6 µg/mL (≈ 3.17 µM). Besides, the MIC in the assay with E. coli SK 12140 is 3.1 µg/mL (≈ 6.14 µM); in the assay on Pseudo. sp. HH 63 it was more than 200 µg/mL; against Salmonella ATCC 12176, 0.8 µg/mL (≈ 1.59 µM); with Kleb. pneumo. SK 1200 (setting [4]) it was 1.6 µg/mL (≈ 3.17 µM); in the assay with E. coli HH 33779, 6.3 µg/mL (≈ 12.5 µM); in the assay on Proteus Morgani 179, 200 µg/mL (≈ 396 µM). In addition, the minimum inhibitory concentration (MIC) was 12.5 µg/mL (≈ 24.8 µM) in the assay with S. aureus HH 127 (HH127, read-out: MIC in vitro) and 25 µg/mL (≈ 49.5 µM) in the assay on S. aureus SK 23390 (setting [5]).
For `CCOC(=O)Cc1nc(SCC2=C(C(=O)O)N3C(=O)C(NC(=O)[C@H](N)c4ccccc4)[C@H]3SC2)n[nH]1` (stereo partly drawn) [III, 7-(D-α-Aminophenylacetamido)-3-(5-carbethoxymethyl-1,2,4-triazol-3-ylthiomethyl)-3-cephem-4-carboxylic acid], the ED50 in vivo with Kleb. pneumo. 4200 (Kleb. pneumo. 4200, s.c.) stood at 3 mg/kg. Moreover, the ED50 was 50 mg/kg in the assay on Kleb. pneumo. 4200 (po, Kleb. pneumo. 4200, p.o.); less than 3 mg/kg in the assay with Kleb. pneumo. 4200 (sc, Kleb. pneumo. 4200, s.c.); 78 mg/kg with E. coli 12140 (setting [2]). For the same compound, the MIC is 100 µg/mL (≈ 188 µM) in assay [1]; 13 µg/mL (≈ 24.4 µM) against Shigella HH 117; more than 200 µg/mL with Serra. marc. ATCC 13880; 100 µg/mL (≈ 188 µM) against Strep. faecalis HH 34358; 25 µg/mL (≈ 46.9 µM) in the assay on Kleb. pneumo. SK 4200; 50 µg/mL (≈ 93.9 µM) in the assay with E. coli SK 12140. Also, the MIC was 25 µg/mL (≈ 46.9 µM) in the assay on Salmonella ATCC 12176; 25 µg/mL (≈ 46.9 µM) in the assay with Kleb. pneumo. SK 1200 (setting [4]); 50 µg/mL (≈ 93.9 µM) against E. coli HH 33779; more than 200 µg/mL with Proteus Morgani 179; 6 µg/mL (≈ 11.3 µM) in the assay with S. aureus HH 127 (setting [6]); 6 µg/mL (≈ 11.3 µM) in the assay on S. aureus SK 23390 (setting [5]).
With `NC(=O)c1nn[nH]c1SCC1=C(C(=O)O)N2C(=O)C(NC(=O)[C@H](N)c3ccc(O)cc3)[C@H]2SC1` (stereo partly drawn) [IV, 7-(D-α-Amino-4-hydroxyphenylacetamido)-3-(4-carbamoyl-1,2,3-triazol-5-ylthiomethyl)-3-cephem-4-carboxylic acid], the ED50 in the assay on Kleb. pneumo. 4200 (po, Kleb. pneumo. 4200, p.o.) is 8.2 mg/kg; in the assay on Kleb. pneumo. 4200 (sc, Kleb. pneumo. 4200, s.c.), less than 3 mg/kg; with E. coli 12140 (setting [2]) it was 35 mg/kg; with E. coli 12140 (setting [3]) it was 5.2 mg/kg. In addition, the minimum inhibitory concentration (MIC) in [1] is 50 µg/mL (≈ 98.9 µM); in the assay with Shigella HH 117, 1.6 µg/mL (≈ 3.16 µM); against Serra. marc. ATCC 13880, more than 200 µg/mL; in the assay with Strep. faecalis HH 34358, 25 µg/mL (≈ 49.5 µM); with Kleb. pneumo. SK 4200 it was 6 µg/mL (≈ 11.9 µM); in the assay on E. coli SK 12140, 6 µg/mL (≈ 11.9 µM). Further, the MIC in the assay with Salmonella ATCC 12176 was 1.6 µg/mL (≈ 3.16 µM); with Kleb. pneumo. SK 1200 (setting [4]), 1.6 µg/mL (≈ 3.16 µM); against E. coli HH 33779 it was 6 µg/mL (≈ 11.9 µM); with Proteus Morgani 179, more than 200 µg/mL; in the assay with S. aureus HH 127 (setting [6]), 3 µg/mL (≈ 5.93 µM); in the assay on S. aureus SK 23390 (setting [5]), 3 µg/mL (≈ 5.93 µM).
